Assay results reported in US6355799B1, “Substituted benzene compounds, process for their preparation, and herbicidal and defoliant compositions containing them” (ISK Americas Incorporated, priority 1997, dated 2002).

Legend:
Format in all cases: in vivo
[1] = system: redroot pigweed (Amaranthus retroflexus, AMARE); test: Pre-emerge test, greenhouse herbicide activity screening; details: pre-emerge, phytotoxicity rating 0-100 at 14 days after application
How it was run: (§1)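 Herbicidal damage is scored 0 (none) to 100 (complete plant death) two weeks after a simulated field spray. Rates span 15–1000 g ai/ha, delivered in acetone at 187 l/ha. For post-emergence treatments, plants have 2–3 leaves and the spray carries 0.25% v/v non-ionic surfactant.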

[2] = system: barnyardgrass (Echinochloa crus-galli, ECHCG); test: as above; details: pre-emerge, phytotoxicity rating 0-100 at 14 days after application
How it was run: as §1

[3] = system: green foxtail (Setaria viridis, SETVI); test: as above; details: pre-emerge, phytotoxicity rating 0-100 at 14 days after application
How it was run: as §1

[4] = system: ivyleaf morningglory (Ipomoea hederacea, IPOHE); test: as above; details: pre-emerge, phytotoxicity rating 0-100 at 14 days after application
How it was run: as §1

[5] = system: lambsquarters (Chenopodium album, CHEAL); test: as above; details: pre-emerge, phytotoxicity rating 0-100 at 14 days after application
How it was run: as §1

[6] = system: large crabgrass (Digitaria sanguinalis, DIGSA); test: as above; details: pre-emerge, phytotoxicity rating 0-100 at 14 days after application
How it was run: as §1

[7] = system: sicklepod (Cassia obtusifolia, CASOB); test: as above; details: pre-emerge, phytotoxicity rating 0-100 at 14 days after application
How it was run: as §1

[8] = system: velvetleaf (Abutilon theophrasti, ABUTH); test: as above; details: pre-emerge, phytotoxicity rating 0-100 at 14 days after application
How it was run: as §1

[9] = system: field corn (Zea mays L., var. Dekalb 535, CORN); test: Pre-emerge test, crop safety; details: crop damage, pre-emerge, phytotoxicity rating 0-100 at 14 days after application
How it was run: (§2)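 Rating: 0–100 visual injury, 14 DAA. Application: acetone, 187 l/ha, 15–1000 g ai/ha, flat-fan track sprayer with nozzle 40–45 cm above soil or canopy. Post-emerge runs used 0.25% v/v surfactant on 2–3 leaf plants.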

[10] = system: upland rice (Oryza sp., var. Tebonnet, RICE); test: Pre-emerge test, crop safety; details: crop damage, pre-emerge, phytotoxicity rating 0-100 at 14 days after application
How it was run: as §2

[11] = system: barnyardgrass (Echinochloa crus-galli, ECHCG); test: Post-emerge test, greenhouse herbicide activity screening; details: post-emerge, phytotoxicity rating 0-100 at 14 days after application
How it was run: (§3)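 Compounds in acetone were track-sprayed at 15–1000 g ai/ha: pre-emergence onto soil sown the previous day, then top-watered to incorporate and later bottom-watered; post-emergence onto 2–3 leaf plants with 0.25% v/v surfactant, bottom-watered only. Ratings on a 0–100 phytotoxicity scale were taken at day 14.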

[12] = system: green foxtail (Setaria viridis, SETVI); test: as above; details: post-emerge, phytotoxicity rating 0-100 at 14 days after application
How it was run: as §3

[13] = system: ivyleaf morningglory (Ipomoea hederacea, IPOHE); test: as above; details: post-emerge, phytotoxicity rating 0-100 at 14 days after application
How it was run: as §3

[14] = system: johnsongrass (Sorghum halepense, SORHA); test: as above; details: post-emerge, phytotoxicity rating 0-100 at 14 days after application
How it was run: as §3

[15] = system: lambsquarters (Chenopodium album, CHEAL); test: as above; details: post-emerge, phytotoxicity rating 0-100 at 14 days after application
How it was run: as §3

[16] = system: large crabgrass (Digitaria sanguinalis, DIGSA); test: as above; details: post-emerge, phytotoxicity rating 0-100 at 14 days after application
How it was run: as §3

[17] = system: redroot pigweed (Amaranthus retroflexus, AMARE); test: as above; details: post-emerge, phytotoxicity rating 0-100 at 14 days after application
How it was run: as §3

[18] = system: sicklepod (Cassia obtusifolia, CASOB); test: as above; details: post-emerge, phytotoxicity rating 0-100 at 14 days after application
How it was run: as §3

[19] = system: velvetleaf (Abutilon theophrasti, ABUTH); test: as above; details: post-emerge, phytotoxicity rating 0-100 at 14 days after application
How it was run: as §3

[20] = system: field corn (Zea mays L., var. Dekalb 535, CORN); test: Post-emerge test, crop safety; details: post-emerge, crop damage rating 0-100 at 14 days after application
How it was run: as §1

[21] = system: upland rice (Oryza sp., var. Tebonnet, RICE); test: Post-emerge test, crop safety; details: post-emerge, crop damage rating 0-100 at 14 days after application
How it was run: as §1

SMILES: COc1c(Cl)cc(F)c(-n2nc(C)n(C(F)F)c2=O)c1NC(=O)c1ccc(F)cc1F [Compound 6-14]
- Pre-emerge Herbicidal Activity AMARE ([1]; rate 63 g ai/ha): 90
- Pre-emerge Herbicidal Activity AMARE ([1]; rate 250 g ai/ha): 100
- Pre-emerge Herbicidal Activity ECHCG ([2]; rate 63 g ai/ha): 100
- Pre-emerge Herbicidal Activity ECHCG ([2]; rate 250 g ai/ha): 100
- Pre-emerge Herbicidal Activity SETVI ([3]; rate 63 g ai/ha): 100
- Pre-emerge Herbicidal Activity SETVI ([3]; rate 250 g ai/ha): 100
- Pre-emerge Herbicidal Activity IPOHE ([4]; rate 63 g ai/ha): 60
- Pre-emerge Herbicidal Activity IPOHE ([4]; rate 250 g ai/ha): 100
- Pre-emerge Herbicidal Activity CHEAL ([5]; rate 63 g ai/ha): 100
- Pre-emerge Herbicidal Activity CHEAL ([5]; rate 250 g ai/ha): 100
- Pre-emerge Herbicidal Activity DIGSA ([6]; rate 63 g ai/ha): 100
- Pre-emerge Herbicidal Activity DIGSA ([6]; rate 250 g ai/ha): 100
- Pre-emerge Herbicidal Activity CASOB ([7]; rate 63 g ai/ha): 40
- Pre-emerge Herbicidal Activity CASOB ([7]; rate 250 g ai/ha): 60
- Pre-emerge Herbicidal Activity ABUTH ([8]; rate 63 g ai/ha): 100
- Pre-emerge Herbicidal Activity ABUTH ([8]; rate 250 g ai/ha): 100
- Pre-emerge Herbicidal Activity CORN ([9]; rate 63 g ai/ha): 90
- Pre-emerge Herbicidal Activity CORN ([9]; rate 250 g ai/ha): 100
- Pre-emerge Herbicidal Activity RICE ([10]; rate 63 g ai/ha): 90
- Pre-emerge Herbicidal Activity RICE ([10]; rate 250 g ai/ha): 100
- Post-emerge Herbicidal Activity ECHCG ([11]; 63 g ai/ha): 20
- Post-emerge Herbicidal Activity ECHCG ([11]; 250 g ai/ha): 90
- Post-emerge Herbicidal Activity SETVI ([12]; 63 g ai/ha): 90
- Post-emerge Herbicidal Activity SETVI ([12]; 250 g ai/ha): 100
- Post-emerge Herbicidal Activity IPOHE ([13]; 63 g ai/ha): 100
- Post-emerge Herbicidal Activity IPOHE ([13]; 250 g ai/ha): 100
- Post-emerge Herbicidal Activity SORHA ([14]; 63 g ai/ha): 30
- Post-emerge Herbicidal Activity SORHA ([14]; 250 g ai/ha): 90
- Post-emerge Herbicidal Activity CHEAL ([15]; 63 g ai/ha): 100
- Post-emerge Herbicidal Activity CHEAL ([15]; 250 g ai/ha): 100
- Post-emerge Herbicidal Activity DIGSA ([16]; 63 g ai/ha): 60
- Post-emerge Herbicidal Activity DIGSA ([16]; 250 g ai/ha): 90
- Post-emerge Herbicidal Activity AMARE ([17]; 63 g ai/ha): 80
- Post-emerge Herbicidal Activity AMARE ([17]; 250 g ai/ha): 100
- Post-emerge Herbicidal Activity CASOB ([18]; 63 g ai/ha): 60
- Post-emerge Herbicidal Activity CASOB ([18]; 250 g ai/ha): 90
- Post-emerge Herbicidal Activity ABUTH ([19]; 63 g ai/ha): 100
- Post-emerge Herbicidal Activity ABUTH ([19]; 250 g ai/ha): 100
- Post-emerge Herbicidal Activity CORN ([20]; 63 g ai/ha): 60
- Post-emerge Herbicidal Activity CORN ([20]; 250 g ai/ha): 100
- Post-emerge Herbicidal Activity RICE ([21]; 63 g ai/ha): 60
- Post-emerge Herbicidal Activity RICE ([21]; 250 g ai/ha): 90

SMILES: Cc1nn(-c2c(F)cc(Cl)cc2NC(=O)c2ccc(F)cc2F)c(=O)n1C(F)F [Compound 6-23]
- Pre-emerge Herbicidal Activity AMARE ([1]; rate 63 g ai/ha): 50
- Pre-emerge Herbicidal Activity AMARE ([1]; rate 250 g ai/ha): 100
- Pre-emerge Herbicidal Activity ECHCG ([2]; rate 63 g ai/ha): 0
- Pre-emerge Herbicidal Activity ECHCG ([2]; rate 250 g ai/ha): 0
- Pre-emerge Herbicidal Activity SETVI ([3]; rate 63 g ai/ha): 0
- Pre-emerge Herbicidal Activity SETVI ([3]; rate 250 g ai/ha): 60
- Pre-emerge Herbicidal Activity IPOHE ([4]; rate 63 g ai/ha): 0
- Pre-emerge Herbicidal Activity IPOHE ([4]; rate 250 g ai/ha): 20
- Pre-emerge Herbicidal Activity CHEAL ([5]; rate 63 g ai/ha): 30
- Pre-emerge Herbicidal Activity CHEAL ([5]; rate 250 g ai/ha): 100
- Pre-emerge Herbicidal Activity DIGSA ([6]; rate 63 g ai/ha): 0
- Pre-emerge Herbicidal Activity DIGSA ([6]; rate 250 g ai/ha): 10
- Pre-emerge Herbicidal Activity CASOB ([7]; rate 63 g ai/ha): 0
- Pre-emerge Herbicidal Activity CASOB ([7]; rate 250 g ai/ha): 10
- Pre-emerge Herbicidal Activity ABUTH ([8]; rate 63 g ai/ha): 0
- Pre-emerge Herbicidal Activity ABUTH ([8]; rate 250 g ai/ha): 50
- Pre-emerge Herbicidal Activity CORN ([9]; rate 63 g ai/ha): 0
- Pre-emerge Herbicidal Activity CORN ([9]; rate 250 g ai/ha): 0
- Pre-emerge Herbicidal Activity RICE ([10]; rate 63 g ai/ha): 0
- Pre-emerge Herbicidal Activity RICE ([10]; rate 250 g ai/ha): 0
- Post-emerge Herbicidal Activity ECHCG ([11]; 63 g ai/ha): 0
- Post-emerge Herbicidal Activity ECHCG ([11]; 250 g ai/ha): 0
- Post-emerge Herbicidal Activity SETVI ([12]; 63 g ai/ha): 0
- Post-emerge Herbicidal Activity SETVI ([12]; 250 g ai/ha): 30
- Post-emerge Herbicidal Activity IPOHE ([13]; 63 g ai/ha): 10
- Post-emerge Herbicidal Activity IPOHE ([13]; 250 g ai/ha): 30
- Post-emerge Herbicidal Activity SORHA ([14]; 63 g ai/ha): 0
- Post-emerge Herbicidal Activity SORHA ([14]; 250 g ai/ha): 0
- Post-emerge Herbicidal Activity CHEAL ([15]; 63 g ai/ha): 20
- Post-emerge Herbicidal Activity CHEAL ([15]; 250 g ai/ha): 70
- Post-emerge Herbicidal Activity DIGSA ([16]; 63 g ai/ha): 0
- Post-emerge Herbicidal Activity DIGSA ([16]; 250 g ai/ha): 10
- Post-emerge Herbicidal Activity AMARE ([17]; 63 g ai/ha): 20
- Post-emerge Herbicidal Activity AMARE ([17]; 250 g ai/ha): 85
- Post-emerge Herbicidal Activity CASOB ([18]; 63 g ai/ha): 0
- Post-emerge Herbicidal Activity CASOB ([18]; 250 g ai/ha): 10
- Post-emerge Herbicidal Activity ABUTH ([19]; 63 g ai/ha): 40
- Post-emerge Herbicidal Activity ABUTH ([19]; 250 g ai/ha): 55
- Post-emerge Herbicidal Activity CORN ([20]; 63 g ai/ha): 0
- Post-emerge Herbicidal Activity CORN ([20]; 250 g ai/ha): 15
- Post-emerge Herbicidal Activity RICE ([21]; 63 g ai/ha): 0
- Post-emerge Herbicidal Activity RICE ([21]; 250 g ai/ha): 15
